Reference: PubChem BioAssay (NCI)
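Values below derive from 48-hour exposures of cells grown in 96-well plates, with endpoints linearly interpolated between the two concentrations bracketing the appropriate inhibition level. TGI denotes the concentration required for complete inhibition of growth.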

Assays:
Experiment in all cases: DTP human tumour cell line panel, 48 h
[1] = tested on: HOP-92 NSCLC
[2] = tested on: NCI-H23 lung
[3] = tested on: T-47D breast
[4] = tested on: EKVX NSCLC
[5] = tested on: NCI/ADR-RES ovarian
[6] = tested on: M14 melanoma
[7] = tested on: NCI-H226 lung
[8] = tested on: IGROV1 ovarian
[9] = tested on: HT29 colon
[10] = tested on: MDA-MB-435

Structure (SMILES) | TGI [1] [µM] | TGI [2] [µM] | TGI [3] [µM] | TGI [4] [µM] | TGI [5] [µM] | TGI [6] [µM] | TGI [7] [µM] | TGI [8] [µM] | TGI [9] [µM] | TGI [10] [µM]
N#C[C@](CO)(NC(=O)OCc1ccccc1)C(F)F | > 100 | > 100 | > 100 | > 100 | > 100 | > 100 | > 100 | > 100 | > 100 | > 100
FC(F)(F)C1(C(F)(F)F)OC(Cl)(Cl)C(Cl)(Cl)O1 | > 10 | > 10 | > 10 | > 10 | > 10 | > 10 | > 10 | > 10 | > 10 | > 10
CCOC(=O)NC(N(C)C(C(C)C)P(=O)(OCC)OCC)(C(F)(F)F)C(F)(F)F (stereo not given) | > 100 | > 100 | > 100 | > 100 | > 100 | > 100 | > 100 | > 100 | > 100 | > 100
CCC(/C=C/c1ccccc1)=N\NC(=S)N/N=C(/C=C/c1ccccc1)CC | > 100 | > 100 | > 100 | > 100 | > 100 | > 100 | > 100 | > 100 | > 100 | > 100
CCOP(=O)(OCC)C(Cc1ccccc1)N=C(c1ccccc1)c1ccccc1 (stereo not given) | 27.5 | 28.6 | 26.6 | 34.3 | 28.7 | 30.4 | 32.9 | 26.8 | 27.6 | 27.8
CCOC(=O)C1(Cc2ccccc2)CCN(C(=O)c2ccccc2)C2C1C2(Cl)Cl (stereo not given) | 55.6 | 77 | 62.4 | 71.7 | 69 | 34.6 | 63.4 | > 100 | 34.8 | 48.3
O/N=C1\CC2(N3CCOCC3)CCC1(Cc1ccccc1)CC2 | 89.2 | > 100 | > 100 | > 100 | > 100 | > 100 | 83.1 | > 100 | > 100 | > 100
O=C(c1ccco1)N1CCN(C(=O)c2ccco2)C1=S | 23.6 | 50.3 | 27.8 | 36.7 | > 79.7 | 40.5 | 51.5 | 27.4 | 24.2 | 14.1
Cn1c2c(c3ccccc31)CC(=O)N1CCCCC1C21OCCO1 (stereo not given) | > 100 | > 100 | > 100 | > 100 | > 100 | > 100 | > 100 | > 100 | > 100 | > 100
O=C(NCCCCNCCCNC(=O)C(F)(F)F)C(F)(F)F | > 100 | > 100 | > 100 | > 100 | > 100 | > 100 | > 100 | > 100 | > 100 | > 100
O=[N+]([O-])C(=C/C1CCCCC1)/C(=C\C1CCCCC1)[N+](=O)[O-] | 20.2 | 10.1 | 38 | 24.9 | 7.29 | 22.3 | 17.9 | 20.6 | 28.8 | 20.4
c1ccc2c(Cc3c[nH]c4ccccc34)c[nH]c2c1 | 35.6 | 38.3 | 63.7 | 32.5 | 62 | 34.1 | 22.5 | 30.7 | 30.2 | 31.3
C#CCSc1cnc2ccccc2c1Sc1c[nH]c2ccccc2c1=O | 61.2 | > 100 | 42.5 | > 100 | > 100 | > 100 | 89.9 | 20 | > 100 | > 100
COc1ccc(CN=C2Nc3ccncc3S(=O)(=O)N2c2ccccc2)cc1 | > 100 | > 100 | > 100 | > 100 | > 100 | > 100 | > 100 | > 100 | > 100 | 80.7
CC(=O)O/C(=C(/C#N)C(=O)O)C1C(C(=O)O)C(c2ccccc2[N+](=O)[O-])C=C(c2ccco2)N1c1ccncc1 (stereo not given) | 35.1 | 12.7 | 18.4 | 22.1 | 36.6 | 9.33 | 18.9 | 3.29 | 3.16 | 15.7
CC1=NN(C(=O)CC(=O)Nc2cccc(Cl)c2)C(=O)C1N=Nc1ccc(S(=O)(=O)c2ccc(N=NC3C(=O)N(C(=O)CC(=O)Nc4cccc(Cl)c4)N=C3C)cc2)cc1 (stereo not given) | > 100 | > 100 | > 100 | > 100 | > 100 | > 100 | > 100 | > 100 | > 100 | > 100
COC(=O)c1ccc(NCC2=CC(=O)c3ccccc3C2=O)cc1 | 12.3 | 38.2 | 32.5 | 66.5 | 90.6 | 37.1 | 39.2 | 30.2 | > 76.4 | 30.3
Cc1cc2c(cc1Cl)Sc1nnc(C)n1S2(=O)=O | 24.1 | 30.1 | 28.3 | 34.3 | 69.8 | 30.8 | > 100 | 29.1 | 45.8 | 26.6
C/C=C/[C@@H]1O[C@H](CC#C[Si](C)(C)C)[C@@]2(C=O)C(C)=CC[C@H](C(C)C)[C@@H]12 | 41.4 | 49.6 | > 100 | 41 | 71 | 37.2 | 41.7 | 10.7 | 46.2 | 42.5
COC(=O)c1cc(C)ccc1CC(Cc1ccccc1C)C(=O)OC (stereo not given) | 79.7 | > 100 | > 100 | 76.3 | > 100 | > 100 | > 100 | > 100 | 94.2 | 43.8
CC(C)(N=NC(C)(C)C1=NCCN1)C1=NCCN1 | > 100 | > 100 | > 100 | > 100 | > 100 | > 100 | > 100 | > 100 | > 100 | > 100
